From US20060069132A1, “Azolecarboxamide herbicides” (priority 2004, published 2006)
Like-named read-outs stand apart in the source and are kept apart here.

What was measured:
[1] = tested on: giant foxtail; test: Test A pre-/postemergence herbicide test; type: in vivo, Setaria faberi; settings: for pest or weed control at 500 g/ha / pest or weed control at 2000 g/ha: Setaria faberi, 240 h
How it was run: (§1)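 Visual injury scores on a 0–100 scale (100 = complete control) taken about ten days post-treatment in greenhouse against untreated controls; dash means no result. Treatments: preemergence soil spray and postemergence spray to runoff on one- to two-leaf plants 2 to 10 cm tall, surfactant-containing formulation.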

[2] = tested on: morningglory; test: Test A pre-/postemergence herbicide test; type: in vivo, Ipomoea spp.; settings: for pest or weed control at 500 g/ha / pest or weed control at 2000 g/ha: Ipomoea, 240 h
How it was run: as §1

[3] = tested on: rice; test: Test B pre-/postemergence herbicide test; type: in vivo, Oryza sativa; settings: for Plant response rating, Rice: preemergence
How it was run: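 Pre: seeds sown, then sprayed. Post: 1–4-leaf plants (2–18 cm) sprayed at the same time. Paddy: flooded, treated at 2-leaf stage. Formulation: non-phytotoxic solvent with surfactant. Greenhouse 13–15 days; visual 0–100 score relative to controls.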

[4] = tested on: johnsongrass; test: Test C pre-/postemergence herbicide test; type: in vivo, Sorghum halepense; settings: for Johnsongrass plant response rating: 500 g ai/ha
How it was run: (§2)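 Visual ratings on a 0–100 scale (100 = complete control) made versus untreated controls after 12 to 14 greenhouse days. Test chemicals, formulated in surfactant-containing non-phytotoxic solvent, applied preemergence to planted seeds or postemergence to 1- to 4-leaf plants (2 to 18 cm).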

[5] = tested on: lambsquarters; test: Test C pre-/postemergence herbicide test; type: in vivo, Chenopodium album; settings: for Lambsquarters plant response rating: 500 g ai/ha
How it was run: as §2

[6] = tested on: morningglory; test: Test C pre-/postemergence herbicide test; type: in vivo, Ipomoea coccinea; design: key to Plant response rating, Morningglory: 0 = no effect, 100 = complete control; settings: for Morningglory plant response rating: 500 g ai/ha
How it was run: as §2

[7] = tested on: velvetleaf; test: Test C pre-/postemergence herbicide test; type: in vivo, Abutilon theophrasti; settings: for Velvetleaf plant response rating: 500 g ai/ha
How it was run: as §2

[8] = tested on: smallflower umbrella sedge; test: Test C flooded paddy test; type: in vivo, Cyperus difformis
[9] = tested on: barnyardgrass; test: Test C flooded paddy test; type: in vivo, Echinochloa crus-galli
How it was run: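 After a postemergence application at 1 to 4 leaves (plants 2–18 cm high), or at 2 leaves for barnyardgrass in flooded paddy, plants stayed in the greenhouse for 12 to 14 days. Damage was then judged visually relative to control plants, with 100 indicating complete control.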

[10] = Postemergence, 500 g ai/ha, 0 to 100 scale, 0 no effect, 100 complete control
[11] = Postemergence, 2000 g ai/ha, 0 to 100 scale, 0 no effect, 100 complete control
[12] = Preemergence, 500 g ai/ha, visual rating, 0 to 100 scale (0 no effect, 100 complete control)
[13] = Preemergence, 2000 g ai/ha, visual rating, 0 to 100 scale (0 no effect, 100 complete control)
[14] = 125 g ai/ha, scale 0 (no effect) to 100 (complete control), visual, 12 to 14 days, preemergence
[15] = Postemergence, 250 g ai/ha, scale 0 to 100, 0 no effect, 100 complete control
[16] = Preemergence, scale 0 to 100, 0 no effect, 100 complete control
[17] = postemergence, 125 g ai/ha, scale 0 to 100
[18] = postemergence, 62 g ai/ha, scale 0 to 100
[19] = 62 g ai/ha, scale 0 to 100 (0 no effect, 100 complete control)
[20] = 250 g ai/ha, scale of 0 to 100, 0 is no effect, 100 is complete control
[21] = 500 g ai/ha, visual rating after 12 to 14 days, scale 0 to 100 (0 no effect, 100 complete control)

In the case of `CCn1nc(C(C)(C)C)cc1C(=O)Nc1cccc(C(=O)NC2CC2)n1` [Compound 146], the “Foxtail, Giant plant response rating” value [1, 10] is reported as 15, the “Plant response rating, Foxtail, Giant” value [1, 11] is reported as 40 and the “Foxtail, Giant plant response rating” value [1, 12] is reported as 45. The “Foxtail, Giant plant response rating” value [1, 13] was 45, the “Morningglory plant response rating” value [2, 10] was 5 and the “Plant response rating, Morningglory” value [2, 11] was 0. The “Morningglory plant response rating” value [2, 12] was 5, the “Morningglory plant response rating” value [2, 13] was 50 and the “Plant response rating, Rice” value ([3]; 500 g ai/ha, visual rating 0-100, 0 no effect, 100 complete control) was 40. The “Plant response rating, Rice” value ([3]; 125 g ai/ha, 0 to 100 scale, 0 is no effect, 100 is complete control) was 10, the “Plant response rating, Johnsongrass” value [4, 14] was 30 and the “Johnsongrass plant response rating” value ([4]; Postemergence, scale 0 to 100) was 0. The “Plant response rating, Johnsongrass” value [4, 15] was 0, the “Johnsongrass plant response rating” value [4, 16] was 70 and the “Plant response rating, Johnsongrass” value [4, 17] was 0. The “Plant response rating, Johnsongrass” value [4, 18] was 0, the “Plant response rating (0 = no effect, 100 = complete control), Lambsquarters” value ([5]; 62 g ai/ha, preemergence) was 85 and the “Plant response rating, Lambsquarters” value [5, 14] was 90. For the same molecule, the “Lambsquarters plant response rating” value ([5]; Postemergence, scale 0 to 100) was 100, the “Plant response rating, Lambsquarters” value [5, 15] was 100 and the “Lambsquarters plant response rating” value [5, 16] was 100. The “Plant response rating, Lambsquarters” value [5, 17] was 80, the “Plant response rating, Lambsquarters” value [5, 18] was 40 and the “Plant response rating (0 = no effect, 100 = complete control), Morningglory” value ([6]; 62 g ai/ha, preemergence) was 0. For the same molecule, the “Plant response rating, Morningglory” value [6, 14] was 5, the “Morningglory plant response rating” value ([6]; Postemergence, scale 0 to 100) was 0 and the “Plant response rating, Morningglory” value [6, 15] was 0. The “Morningglory plant response rating” value [6, 16] was 50, the “Plant response rating, Morningglory” value [6, 17] was 0 and the “Plant response rating, Morningglory” value [6, 18] was 0. The “Plant response rating, Velvetleaf” value [7, 14] was 40, the “Velvetleaf plant response rating” value ([7]; Postemergence, scale 0 to 100) was 40 and the “Plant response rating, Velvetleaf” value [7, 15] was 40. The “Velvetleaf plant response rating” value [7, 16] was 100, the “Plant response rating, Velvetleaf” value [7, 17] was 35 and the “Plant response rating, Velvetleaf” value [7, 18] was 30. For the same molecule, the “Sedge, Umbrella plant response rating” value [8, 19] was 60, the “Sedge, Umbrella plant response rating” value ([8]; 125 g ai/ha, scale 0 to 100 (0 no effect, 100 complete control)) was 80 and the “Sedge, Umbrella plant response rating” value [8, 20] was 90. For the same molecule, the “Plant response rating, Sedge, Umbrella” value [8, 21] was 90, the “Barnyardgrass plant response rating” value [9, 19] was 0 and the “Barnyardgrass plant response rating” value ([9]; 125 g ai/ha, scale of 0 to 100, 0 is no effect, 100 is complete control) was 0. For the same molecule, the “Barnyardgrass plant response rating” value [9, 20] was 0 and the “Plant response rating, Barnyardgrass” value [9, 21] was 20.
For `CCn1nc(C(C)(C)C)cc1C(=O)Nc1cc(C(=O)N(C)C)ccc1F` [Compound 6, N-[5-[(dimethylamino)carbonyl]-2-fluorophenyl]-3-(1,1-dimethylethyl)-1-ethyl-1H-pyrazole-5-carboxamide], the pest or weed control at 500 g/ha ([1]; post-emergence, Postemergence, 500 g ai/ha, 0 to 100 scale, 0 no effect, 100 complete control, read-out: Plant response rating, Foxtail, Giant) was 70%, the pest or weed control at 2000 g/ha ([1]; post-emergence, Postemergence, 2000 g ai/ha, 0 to 100 scale, 0 no effect, 100 complete control, read-out: Plant response rating, Foxtail, Giant) was 70% and the pest or weed control at 500 g/ha ([1]; pre-emergence, Preemergence, 500 g ai/ha, visual rating, 0 to 100 scale (0 no effect, 100 complete control), read-out: Foxtail, Giant plant response rating) was 100%. It also gave a pest or weed control at 2000 g/ha ([1]; pre-emergence, Preemergence, 2000 g ai/ha, 0 to 100 scale, 0 no effect, 100 complete control, read-out: Foxtail, Giant plant response rating) of 100%, a pest or weed control at 500 g/ha ([2]; post-emergence, Postemergence, 500 g ai/ha, 0 to 100 scale, 0 no effect, 100 complete control, read-out: Plant response rating, Morningglory) of 10% and a pest or weed control at 2000 g/ha ([2]; post-emergence, Postemergence, 2000 g ai/ha, 0 to 100 scale, 0 no effect, 100 complete control, read-out: Plant response rating, Morningglory) of 30%. For the same molecule, the pest or weed control at 500 g/ha ([2]; pre-emergence, Preemergence, 500 g ai/ha, visual rating, 0 to 100 scale (0 no effect, 100 complete control), read-out: Morningglory plant response rating) was 45%, the pest or weed control at 2000 g/ha ([2]; pre-emergence, Preemergence, 2000 g ai/ha, 0 to 100 scale, 0 no effect, 100 complete control, read-out: Morningglory plant response rating) was 80% and the “Rice plant response rating” value ([3]; Preemergence, 500 g ai/ha, scale 0 to 100) was 100. For the same molecule, the “Plant response rating (0 = no effect, 100 = complete control), Johnsongrass” value ([4]; 62 g ai/ha, preemergence) was 70, the “Johnsongrass plant response rating” value [4, 16] was 100 and the pest or weed control at 125 g/ha ([4]; Sorghum halepense, pre-emergence, 125 g ai/ha, scale 0-100, read-out: Plant response rating, Johnsongrass) was 90%. For the same molecule, the pest or weed control at 250 g/ha ([4]; Sorghum halepense, pre-emergence, 250 g ai/ha, scale 0 to 100 (0 no effect, 100 complete control), visual, 12 to 14 days, read-out: Plant response rating, Johnsongrass) was 90%, the “Plant response rating (0 = no effect, 100 = complete control), Lambsquarters” value ([5]; 62 g ai/ha, preemergence) was 100 and the pest or weed control at 125 g/ha ([5]; Chenopodium album, pre-emergence, 125 g ai/ha, scale 0-100, read-out: Plant response rating, Lambsquarters) was 100%. The pest or weed control at 250 g/ha ([5]; Chenopodium album, pre-emergence, 250 g ai/ha, scale 0 to 100 (0 no effect, 100 complete control), visual, 12 to 14 days, read-out: Plant response rating, Lambsquarters) was 100%, the “Lambsquarters plant response rating” value [5, 16] was 100 and the “Plant response rating (0 = no effect, 100 = complete control), Morningglory” value ([6]; 62 g ai/ha, preemergence) was 0. For the same molecule, the pest or weed control at 250 g/ha ([6]; Ipomoea, pre-emergence, 250 g ai/ha, scale 0 to 100 (0 no effect, 100 complete control), visual, 12 to 14 days, read-out: Plant response rating, Morningglory) was 30%, the “Morningglory plant response rating” value [6, 16] was 70 and the “Plant response rating (0 = no effect, 100 = complete control), Velvetleaf” value ([7]; 62 g ai/ha, preemergence) was 40. The pest or weed control at 250 g/ha ([7]; Abutilon theophrasti, pre-emergence, 250 g ai/ha, scale 0 to 100 (0 no effect, 100 complete control), visual, 12 to 14 days, read-out: Plant response rating, Velvetleaf) was 100%, the “Velvetleaf plant response rating” value [7, 16] was 100 and the pest or weed control at 62 g/ha ([8]; Cyperus difformis, 62 g ai/ha, scale 0 to 100 (0 no effect, 100 complete control), read-out: Sedge, Umbrella plant response rating) was 70%. It also gave a pest or weed control at 125 g/ha ([8]; Cyperus difformis, 125 g ai/ha, scale of 0 to 100, 0 is no effect, 100 is complete control, read-out: Sedge, Umbrella plant response rating) of 90%, a pest or weed control at 250 g/ha ([8]; Cyperus difformis, 250 g ai/ha, visual rating after 12 to 14 days, scale 0 to 100 (0 no effect, 100 complete control), read-out: Plant response rating, Sedge, Umbrella) of 90% and a pest or weed control at 500 g/ha ([8]; Cyperus difformis, 500 g ai/ha, visual rating after 12 to 14 days, scale 0 to 100 (0 no effect, 100 complete control), read-out: Plant response rating, Sedge, Umbrella) of 90%. For the same molecule, the pest or weed control at 62 g/ha ([9]; Echinochloa crus-galli, 62 g ai/ha, scale 0 to 100 (0 no effect, 100 complete control), read-out: Barnyardgrass plant response rating) was 60%, the pest or weed control at 125 g/ha ([9]; Echinochloa crus-galli, 125 g ai/ha, scale of 0 to 100, 0 is no effect, 100 is complete control, read-out: Barnyardgrass plant response rating) was 90% and the pest or weed control at 250 g/ha ([9]; Echinochloa crus-galli, 250 g ai/ha, visual rating after 12 to 14 days, scale 0 to 100 (0 no effect, 100 complete control), read-out: Plant response rating, Barnyardgrass) was 90%. For the same molecule, the pest or weed control at 500 g/ha ([9]; Echinochloa crus-galli, 500 g ai/ha, visual rating after 12 to 14 days, scale 0 to 100 (0 no effect, 100 complete control), read-out: Plant response rating, Barnyardgrass) was 90%.
